According to patent publication US12383534B2, “Methods for treating cancer” (REGENTS OF THE UNIVERSITY OF MINNESOTA, priority 2021, dated 2025):

How the values were obtained:
Kitra-SRS cells = test: Immunofluorescence for Ki-67 in Kitra-SRS cells; assay type: cell-based, human; details: 24 hours, 0.3 μM
Method: (§1) For western blot analyses, cells were lysed with RIPA buffer supplemented with protease inhibitor cocktail (Complete, Roche), and proteins were separated on 10% SDS-PAGE gels, then transferred to PVDF membranes. Antibodies were diluted in 5% skim milk in TBST and incubated overnight at 4° C. or 1 hour at RT. An appropriate secondary HRP conjugated antibody was incubated for 1 hour at RT. Membranes were then washed with TBST, and signal was visualized using Pierce ECL western blotting substrate (Thermo Scientific). For immunofluorescence, cells cultured in 96 well plates were fixed in 4% PFA for 10 min., washed twice with PBS, permeabilized with 0.3% Triton X for 30 min, and blocked with 3% BSA for 1 hour at R/T. Primary antibodies were diluted in 3% BSA and incubated o/n at 4° C. An appropriate conjugated secondary antibody was applied for 60 min at RT. Nuclei were visualized using DAPI (1:5000, Sigma). […]

NCC-CDS-X1 cells [1] = test: Immunofluorescence for Ki-67 in NCC-CDS-X1 cells; assay type: cell-based, human; details: NCC-CDS-X1, 24 hours, 0.3 μM
Method: as §1

[2] = test system: Kitra-SRS cells (CIC-DUX4 sarcoma cell line); test: Cell viability (ATP) assay in Kitra-SRS cells; assay type: cell-based, human; details: day 2
Method: (§2) Basal media were purchased from HyClone, fetal bovine serum (FBS) was from PeakSerum (Ps-FB3, lot 293Q16), and Glutamax (Glu) and Penicillin/Streptomycin (P/S) were from GIBCO. NCC-CDS-X1 (CIC-DUX4 sarcoma cell line, a generous gift from Tadashi Kondo) cell line was cultured in RPMI with 10% FBS, Glu and P/S, Kitra-SRS (CIC-DUX4 sarcoma cell line, a generous gift from Hidetatsu Otani), 3T3, 293T and C2C12 cell lines were cultured in DMEM/10% FBS/Glu/P/S. The immortalized human myoblast LHCN-M2 cell line was cultured in proliferation medium: F10 supplemented with 20% FBS, 2-mercaptoethanol 1× (GIBCO), 10^−9 M dexamethasone (Sigma), 10 ng/mL bFGF (Peprotech), and Glu/P/S. All cells were cultured at 37° C. in a 5% CO2 atmosphere.
(§3) Cell lines were plated in a 96 well dish (1×10^5 cells/well), and the following day were treated with iP300w or its stereoisomers. ATP assays were performed using CellTiter-Glo® Luminescent Cell Viability Assay (Promega) according to the manufacturer's instructions. Luminescence was analyzed on POLARstar Optima Microplate Reader (BMG Labtech, Offenburg, Germany).
To evaluate the consequences of iP300w treatment of CDS cells, its effects on both monolayer cultures as well as 3D spheres was determined in both CDS cell lines. […] Using the cell viability assay, it was determined that 0.003 μM was the lowest effective concentration on day 2 in both lines (FIG. 2B).

NCC-CDS-X1 cells [3] = test: EdU incorporation (FACS) in NCC-CDS-X1 cells; assay type: cell-based, human
Method: EdU labeling and visualization was done using Click-iT® EdU Flow Cytometry Assay Kit (Thermo Fisher Scientific). Briefly, 1×10^5 NCC-CDS-X1 cells were plated in each well of a 24-well plate. The following day, continual treatment with 0.3 μM iP300w was initiated. For the pulse experiment, cells were treated with iP300w for 4 or 24 hours and analyzed 24 hours later. Cells were cultured with EdU ([…]) in the last 4 hours of the experiment, and samples were prepared for analyses according to the manufacture's instruction. FACS analyses were performed on a BD FACSAria instrument and data was analyzed using FlowJo (BD Biosciences). Experiments were performed on at least three biological replicates.

LCHN-Myoblast = test: ATP assay on LCHN-Myoblast; assay type: cell-based, human; details: after 3 days of treatment (FIG. 10C)
Method: as §2
as §3, with “Germany). […]” for “Germany).”

[4] = test system: NCC-CDS-X1 subcutaneous xenograft tumors; test: NCC-CDS-X1 xenograft tumor growth in mice; assay type: in vivo, mouse; details: 1.4 mg/kg b.i.d. intraperitoneally from day 9, 12 days
Method: Mice were maintained, and in vivo experiments were conducted at the University of Minnesota Research Animal Resources facility, under a protocol (1903-36866A) approved by IACUC. Immunodeficient NSG-MDX mice (n=8) were transplanted with 1×10^7 NCC-CDS-X1 cells resuspended in 100 uL of a mixture of medium and Matrigel (Corning). Visible tumor masses at the sites of injection were detected on day 9 after transplantation. All the injected mice developed tumors. At this point, the mice were randomized into two groups, control and iP300w treated, and initial measurement of the tumors was performed. iP300w was initially dissolved in DMSO at 10 mM and then diluted in 100 uL PBS. Each mouse received 1.4 mg/kg iP300w intraperitoneally twice daily or vehicle in the control group. Tumor size was recorded every 4 days and the volume was calculated using the formula (length×width^2)/2.
Finally, the effectiveness of iP300w to suppress CDS tumor growth in vivo was assessed. NCC-CDS-X1 cells were used to generate subcutaneous xenograft tumors in immunodeficient NSG mice (n=8). When tumors were palpable (day 9) iP300w injections (1.4 mg/kg b.i.d.) were initiated and the progression of tumor growth was monitored.

CNC(=O)Cn1cc(-c2ccc3c(c2)[C@H](F)C[C@]32NC(=O)N(CC(=O)N(Cc3ccc(F)cc3)[C@@H](C)C(F)(F)F)C2=O)cn1 (single isomer, unassigned) [iP300w]
Ki-67 positive staining (Kitra-SRS cells): almost complete absence of Ki-67 positive staining | Ki-67 positive staining (NCC-CDS-X1 cells [1]): almost complete absence of Ki-67 positive staining | lowest effective concentration in cell viability assay [2]: 0.003 µM | proliferation rate after 4-hour pulse (NCC-CDS-X1 cells [3]; 0.3 μM 4-hour pulse, measured 20 hours later): significantly reduced proliferation rate | cell cycle recovery after 24-hour pulse (NCC-CDS-X1 cells [3]; 0.3 μM treated for 24 hours, 48 hours after the pulse): not able to restore the cell cycle | EdU labeling of proliferating cells (NCC-CDS-X1 cells [3]; continual treatment 0.3 μM, 48 hours): virtually no cells were labelled | concentration giving mild suppression of proliferation (LCHN-Myoblast): ≥ 0.3 µM | treated mice with tumor growth halted [4]: 5/8 | treated mice with tumor growth significantly diminished [4]: 3/8
